These compounds were tested against T1, DPP-IV (Homo sapiens, UniProt P27487) (assay: In vitro assay for dipeptidyl peptidase inhibition). Details: hydrochloride salts; Gly-Pro-4-methoxy B naphthylamide substrate; overnight at 37° C.; read-out: IC50 (concentration of test compound required for 50% inhibition).
T1 construct: purchased Enzyme Systems Products SPE-01
Assay type: biochemical
Method: 150 μL of an enzyme-substrate solution was pipetted into microtiter wells of a polystyrene 96-well plate, and maintained at 4° C. The enzyme-substrate solution comprised 50 μM Gly-Pro-4-methoxy B naphthylamide HCl in 50 mM Tris assay buffer pH 7.3 containing 0.1M sodium chloride, 0.1% (v/v) Triton and 50 μU/mL DPP-IV (Enzyme Systems Products Cat#SPE-01, DPP-IV 5 mU/mL stock). 5 μL/well of compounds of Formula (I) were added, bringing the final compound of Formula (I) concentrations to 3 μM-10 nM per well.
Controls. Enzyme was omitted from four (4) wells, as a reagent blank. 5 μL of 3 mM Diprotin A was added to four wells as a positive quality control, providing a final Diprotin A concentration of 100 μM. To measure total enzyme activity (i.e. a negative control), without the influence of any compounds of Formula (I), 5 μL of distilled water was added to four wells.
The entire assay was incubated overnight (about 14-18 hours) at 37° C.

T1 sequence (P27487 whole entry, species assumed): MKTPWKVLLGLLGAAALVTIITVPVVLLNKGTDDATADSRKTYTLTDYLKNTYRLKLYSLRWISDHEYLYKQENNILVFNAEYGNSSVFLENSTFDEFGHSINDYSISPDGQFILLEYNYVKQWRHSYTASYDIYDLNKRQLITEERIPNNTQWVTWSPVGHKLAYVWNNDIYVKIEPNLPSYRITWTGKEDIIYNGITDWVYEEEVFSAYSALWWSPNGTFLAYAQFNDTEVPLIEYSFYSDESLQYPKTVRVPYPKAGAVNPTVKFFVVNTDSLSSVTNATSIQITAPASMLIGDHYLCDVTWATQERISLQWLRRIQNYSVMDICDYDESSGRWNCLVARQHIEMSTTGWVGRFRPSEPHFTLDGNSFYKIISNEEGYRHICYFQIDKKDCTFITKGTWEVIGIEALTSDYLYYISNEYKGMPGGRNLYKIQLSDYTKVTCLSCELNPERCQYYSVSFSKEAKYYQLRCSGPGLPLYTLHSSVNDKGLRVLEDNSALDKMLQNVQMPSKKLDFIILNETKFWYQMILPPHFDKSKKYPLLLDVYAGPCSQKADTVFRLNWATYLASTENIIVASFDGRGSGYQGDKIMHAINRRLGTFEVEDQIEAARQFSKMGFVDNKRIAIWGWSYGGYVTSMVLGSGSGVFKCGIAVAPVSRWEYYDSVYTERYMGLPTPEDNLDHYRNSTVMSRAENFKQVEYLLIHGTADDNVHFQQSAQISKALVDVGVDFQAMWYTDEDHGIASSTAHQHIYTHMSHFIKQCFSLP

SMILES	IC50 [µM]
N[C@H](C(=O)N1CCCC1)[C@H]1CC[C@@H](NC(=O)CCC2C(=O)OCN2C(=O)OCc2ccccc2)CC1 (stereo in doubt) [Example 4, (4S)-4-{2-[cis-4-((1S)-1-amino-2-oxo-2-pyrrolidin-1-yl-ethyl)-cyclohexylcarbamoyl]-ethyl}-5-oxo-oxazolidine-3-carboxylic acid benzyl ester]	0.1 to 0.5
N[C@H](C(=O)N1CCCC1)[C@H]1CC[C@@H](NC(=O)CNC(=O)c2ccccc2)CC1 [Example 1, N-{[cis-4-((1S)-1-amino-2-oxo-2-pyrrolidin-1-yl-ethyl)-cyclohexylcarbamoyl]-methyl}-benzamide]	> 0.5
N[C@H](C(=O)N1CCCC1)[C@H]1CC[C@@H](NC(=O)CNC(=O)OCc2ccccc2)CC1 [Example 2, {[cis-4-((1S)-1-amino-2-oxo-2-pyrrolidin-1-yl-ethyl)-cyclohexylcarbamoyl]-methyl}-carbamic acid benzyl ester]	> 0.5
N[C@H](C(=O)N1CCCC1)[C@H]1CC[C@@H](NC(=O)[C@@H]2CCCN2C(=O)OCc2ccccc2)CC1 [Example 3, (2S)-2-[cis-4-(1-(1S)-amino-2-oxo-2-pyrrolidin-1-yl-ethyl)-cyclohexylcarbamoyl]-pyrrolidine-1-carboxylic acid benzyl ester]	> 0.5
N[C@H](C(=O)N1CCCC1)[C@H]1CC[C@@H](NC(=O)[C@H]2COCN2C(=O)OCc2ccccc2)CC1 [Example 5, (4R)-4-[cis-4-((1S)-1-amino-2-oxo-2-pyrrolidin-1-yl-ethyl)-cyclohexylcarbamoyl]-oxazolidine-3-carboxylic acid benzyl ester]	0.1 to 0.5
N[C@H](C(=O)N1CCCC1)[C@H]1CC[C@@H](NC(=O)[C@@H]2COCN2C(=O)OCc2ccccc2)CC1 [Example 6, (4S)-4-[cis-4-((1S)-1-amino-2-oxo-2-pyrrolidin-1-yl-ethyl)-cyclohexylcarbamoyl]-oxazolidine-3-carboxylic acid benzyl ester]	> 0.5
N[C@H](C(=O)N1CCCC1)[C@H]1CC[C@@H](NC(=O)[C@@H]2CNC(=O)N2C(=O)OCc2ccccc2)CC1 [Example 7, (5S)-5-[cis-4-((1S)-1-amino-2-oxo-2-pyrrolidin-1-yl-ethyl)-cyclohexylcarbamoyl]-2-oxo-imidazolidine-1-carboxylic acid benzyl ester]	> 0.5
N[C@H](C(=O)N1CCCC1)[C@H]1CC[C@H](NC(=O)[C@H]2COCN2C(=O)OCc2ccccc2)CC1 [Example 8, (4R)-4-[trans-4-((1S)-1-amino-2-oxo-2-pyrrolidin-1-yl-ethyl)-cyclohexylcarbamoyl]-oxazolidine-3-carboxylic acid benzyl ester]	0.1 to 0.5
N[C@H](C(=O)N1CCCC1)[C@H]1CC[C@H](NC(=O)[C@@H]2CNC(=O)N2C(=O)OCc2ccccc2)CC1 [Example 9, (5S)-5-[trans-4-((1S)-1-amino-2-oxo-2-pyrrolidin-1-yl-ethyl)-cyclohexylcarbamoyl]-2-oxo-imidazolidine-1-carboxylic acid benzyl ester]	≤ 0.1
N[C@H](C(=O)N1CCCC1)[C@H]1CC[C@H](NC(=O)CC[C@H]2C(=O)OCN2C(=O)OCc2ccccc2)CC1 [Example 10, (4S)-4-{2-[trans-4-((1S-)-1-amino-2-oxo-2-pyrrolidin-1-yl-ethyl)-cyclohexylcarbamoyl]-ethyl}-5-oxo-oxazolidine-3-carboxylic acid benzyl ester]	≤ 0.1
N[C@H](C(=O)N1CCCC1)[C@H]1CC[C@H](NC(=O)[C@@H]2COCN2C(=O)OCc2ccccc2)CC1 [Example 11, (4S)-4-[trans-4-((1S)-1-amino-2-oxo-2-pyrrolidin-1-yl-ethyl)-cyclohexylcarbamoyl]-oxazolidine-3-carboxylic acid benzyl ester]	≤ 0.1

Same assay, conditions: hydrochloride salts; Gly-Pro-4-methoxy B naphthylamide substrate; overnight at 37° C.; read-out: IC50 (concentration of test compound required for 50% inhibition), bound given in μM

SMILES	IC50 [µM]
N[C@H](C(=O)N1CCCC1)[C@H]1CC[C@@H](NC(=O)[C@@H]2COCN2C(=O)OCc2ccccc2)CC1 [Example 6, (4S)-4-[cis-4-((1S)-1-amino-2-oxo-2-pyrrolidin-1-yl-ethyl)-cyclohexylcarbamoyl]-oxazolidine-3-carboxylic acid benzyl ester]	≤ 1
N[C@H](C(=O)N1CCCC1)[C@H]1CC[C@@H](NC(=O)[C@@H]2CNC(=O)N2C(=O)OCc2ccccc2)CC1 [Example 7, (5S)-5-[cis-4-((1S)-1-amino-2-oxo-2-pyrrolidin-1-yl-ethyl)-cyclohexylcarbamoyl]-2-oxo-imidazolidine-1-carboxylic acid benzyl ester]	≤ 1
